Key:
Assay in all cases: cells
IA-LM = assay type: functional, cell-based, Homo sapiens
Description: SANGER: Inhibition of human IA-LM cell growth in a cell viability assay.

Ramos-2G6-4C10 = assay type: functional, cell-based, Homo sapiens
Description: SANGER: Inhibition of human Ramos-2G6-4C10 cell growth in a cell viability assay.

RS4-11 = assay type: functional, cell-based, Homo sapiens
Description: SANGER: Inhibition of human RS4-11 cell growth in a cell viability assay.

OCUB-M = assay type: functional, cell-based, Homo sapiens
Description: SANGER: Inhibition of human OCUB-M cell growth in a cell viability assay.

EW-3 = assay type: functional, cell-based, Homo sapiens
Description: SANGER: Inhibition of human EW-3 cell growth in a cell viability assay.

DU-4475 = assay type: functional, cell-based, Homo sapiens
Description: SANGER: Inhibition of human DU-4475 cell growth in a cell viability assay.

DSH1 = assay type: functional, cell-based, Homo sapiens
Description: SANGER: Inhibition of human DSH1 cell growth in a cell viability assay.

TE-6 = assay type: functional, cell-based, Homo sapiens
Description: SANGER: Inhibition of human TE-6 cell growth in a cell viability assay.

MPP-89 = assay type: functional, cell-based, Homo sapiens
Description: SANGER: Inhibition of human MPP-89 cell growth in a cell viability assay.

NCI-H1395 = assay type: functional, cell-based, Homo sapiens
Description: SANGER: Inhibition of human NCI-H1395 cell growth in a cell viability assay.

IST-SL1 = assay type: functional, cell-based, Homo sapiens
Description: SANGER: Inhibition of human IST-SL1 cell growth in a cell viability assay.

EM-2 = assay type: functional, cell-based, Homo sapiens
Description: SANGER: Inhibition of human EM-2 cell growth in a cell viability assay.

SNU-C2B = assay type: functional, cell-based, Homo sapiens
Description: SANGER: Inhibition of human SNU-C2B cell growth in a cell viability assay.

NCI-H526 = assay type: functional, cell-based, Homo sapiens
Description: SANGER: Inhibition of human NCI-H526 cell growth in a cell viability assay.

C2BBe1 = assay type: functional, cell-based, Homo sapiens
Description: SANGER: Inhibition of human C2BBe1 cell growth in a cell viability assay.

NCI-H1304 = assay type: functional, cell-based, Homo sapiens
Description: SANGER: Inhibition of human NCI-H1304 cell growth in a cell viability assay.

U-87 MG = assay type: functional, cell-based, Homo sapiens, U-87MG ATCC
Description: SANGER: Inhibition of human U-87-MG cell growth in a cell viability assay.

TE-11 = assay type: functional, cell-based, Homo sapiens
Description: SANGER: Inhibition of human TE-11 cell growth in a cell viability assay.

MMAC-SF = assay type: functional, cell-based, Homo sapiens
Description: SANGER: Inhibition of human MMAC-SF cell growth in a cell viability assay.

RCC10RGB = assay type: functional, cell-based, Homo sapiens
Description: SANGER: Inhibition of human RCC10RGB cell growth in a cell viability assay.

NCI-H1355 = assay type: functional, cell-based, Homo sapiens
Description: SANGER: Inhibition of human NCI-H1355 cell growth in a cell viability assay.

CAS-1 = assay type: functional, cell-based, Homo sapiens
Description: SANGER: Inhibition of human CAS-1 cell growth in a cell viability assay.

U-266 = assay type: functional, cell-based, Homo sapiens
Description: SANGER: Inhibition of human U-266 cell growth in a cell viability assay.

D283 Med = assay type: functional, cell-based, Homo sapiens
Description: SANGER: Inhibition of human D-283MED cell growth in a cell viability assay.

SK-MEL-1 = assay type: functional, cell-based, Homo sapiens
Description: SANGER: Inhibition of human SK-MEL-1 cell growth in a cell viability assay.

MSTO-211H = assay type: functional, cell-based, Homo sapiens
Description: SANGER: Inhibition of human MSTO-211H cell growth in a cell viability assay.

GB-1 = assay type: functional, cell-based, Homo sapiens
Description: SANGER: Inhibition of human GB-1 cell growth in a cell viability assay.

KS-1 = assay type: functional, cell-based, Homo sapiens
Description: SANGER: Inhibition of human KS-1 cell growth in a cell viability assay.

K5 = assay type: functional, cell-based, Homo sapiens
Description: SANGER: Inhibition of human K5 cell growth in a cell viability assay.

GI-ME-N = assay type: functional, cell-based, Homo sapiens
Description: SANGER: Inhibition of human GI-ME-N cell growth in a cell viability assay.

BE-13 = assay type: functional, cell-based, Homo sapiens
Description: SANGER: Inhibition of human BE-13 cell growth in a cell viability assay.

NB13 = assay type: functional, cell-based, Homo sapiens
Description: SANGER: Inhibition of human NB13 cell growth in a cell viability assay.

NB69 = assay type: functional, cell-based, Homo sapiens
Description: SANGER: Inhibition of human NB69 cell growth in a cell viability assay.

NCI-H747 = assay type: functional, cell-based, Homo sapiens
Description: SANGER: Inhibition of human NCI-H747 cell growth in a cell viability assay.

GOTO = assay type: functional, cell-based, Homo sapiens
Description: SANGER: Inhibition of human GOTO cell growth in a cell viability assay.

D-247MG = assay type: functional, cell-based, Homo sapiens; conditions: Homo sapiens, D-247MG
Description: SANGER: Inhibition of human D-247MG cell growth in a cell viability assay.

IST-MES1 = assay type: functional, cell-based, Homo sapiens
Description: SANGER: Inhibition of human IST-MES1 cell growth in a cell viability assay.

CGTH-W-1 = assay type: functional, cell-based, Homo sapiens
Description: SANGER: Inhibition of human CGTH-W-1 cell growth in a cell viability assay.

D-502MG = assay type: functional, cell-based, Homo sapiens
Description: SANGER: Inhibition of human D-502MG cell growth in a cell viability assay.

GI-1 = assay type: functional, cell-based, Homo sapiens
Description: SANGER: Inhibition of human GI-1 cell growth in a cell viability assay.

OS-RC-2 = assay type: functional, cell-based, Homo sapiens
Description: SANGER: Inhibition of human OS-RC-2 cell growth in a cell viability assay.

MOLT-16 = assay type: functional, cell-based, Homo sapiens
Description: SANGER: Inhibition of human MOLT-16 cell growth in a cell viability assay.

TK-10 = assay type: functional, cell-based, Homo sapiens
Description: SANGER: Inhibition of human TK10 cell growth in a cell viability assay.

HDLM-2 = assay type: functional, cell-based, Homo sapiens
Description: SANGER: Inhibition of human HDLM-2 cell growth in a cell viability assay.

EW-11 = assay type: functional, cell-based, Homo sapiens
Description: SANGER: Inhibition of human EW-11 cell growth in a cell viability assay.

SK-NEP-1 = assay type: functional, cell-based, Homo sapiens
Description: SANGER: Inhibition of human SK-NEP-1 cell growth in a cell viability assay.

NCI-H510A = assay type: functional, cell-based, Homo sapiens; conditions: nci-h510a
Description: SANGER: Inhibition of human NCI-H510A cell growth in a cell viability assay.

EW-24 = assay type: functional, cell-based, Homo sapiens; conditions: ew-24
Description: SANGER: Inhibition of human EW-24 cell growth in a cell viability assay.

HOP-62 = assay type: functional, cell-based, Homo sapiens; conditions: hop-62
Description: SANGER: Inhibition of human HOP-62 cell growth in a cell viability assay.

## CCN(CC)CCCCNc1ncc2cc(-c3cc(OC)cc(OC)c3)c(NC(=O)NC(C)(C)C)nc2n1 [PD-173074]
IA-LM; Homo sapiens, IA-LM
  IC50: > 2 µM
Ramos-2G6-4C10; Homo sapiens, Ramos-2G6-4C10
  IC50: > 2 µM
RS4-11; Homo sapiens, RS4-11
  IC50: 1.34 µM
OCUB-M; Homo sapiens, OCUB-M
  IC50: > 2 µM
EW-3; Homo sapiens, EW-3
  IC50: > 2 µM
DU-4475; Homo sapiens, DU-4475
  IC50: > 2 µM
DSH1; Homo sapiens, DSH1
  IC50: > 2 µM
TE-6; Homo sapiens, TE-6
  IC50: > 2 µM
MPP-89; Homo sapiens, MPP-89
  IC50: > 2 µM
NCI-H1395; Homo sapiens, NCI-H1395
  IC50: > 2 µM
IST-SL1; Homo sapiens, IST-SL1
  IC50: > 2 µM
EM-2; Homo sapiens, EM-2
  IC50: > 2 µM
SNU-C2B; Homo sapiens, SNU-C2B
  IC50: > 2 µM
NCI-H526; Homo sapiens, NCI-H526
  IC50: > 2 µM
C2BBe1; Homo sapiens, C2BBe1
  IC50: > 2 µM
NCI-H1304; Homo sapiens, NCI-H1304
  IC50: > 2 µM
U-87 MG; Homo sapiens, U-87 MG
  IC50: > 2 µM
TE-11; Homo sapiens, TE-11
  IC50: > 2 µM
MMAC-SF; Homo sapiens, MMAC-SF
  IC50: > 2 µM
RCC10RGB; Homo sapiens, RCC10RGB
  IC50: > 2 µM
NCI-H1355; Homo sapiens, NCI-H1355
  IC50: > 2 µM
CAS-1; Homo sapiens, CAS-1
  IC50: > 2 µM
U-266; Homo sapiens, U-266
  IC50: > 2 µM
D283 Med; Homo sapiens, D283 Med
  IC50: > 2 µM
SK-MEL-1; Homo sapiens, SK-MEL-1
  IC50: > 2 µM
MSTO-211H; Homo sapiens, MSTO-211H
  IC50: 1.47 µM
GB-1; Homo sapiens, GB-1
  IC50: > 2 µM
KS-1; Homo sapiens, KS-1
  IC50: > 2 µM
K5; Homo sapiens, K5
  IC50: > 2 µM
GI-ME-N; Homo sapiens, GI-ME-N
  IC50: > 2 µM
BE-13; Homo sapiens, BE-13
  IC50: > 2 µM
NB13; Homo sapiens, NB13
  IC50: > 2 µM
NB69; Homo sapiens, NB69
  IC50: > 2 µM
NCI-H747; Homo sapiens, NCI-H747
  IC50: > 2 µM
GOTO; Homo sapiens, GOTO
  IC50: > 2 µM
D-247MG
  IC50: > 2 µM
IST-MES1; Homo sapiens, IST-MES1
  IC50: > 2 µM
CGTH-W-1; Homo sapiens, CGTH-W-1
  IC50: > 2 µM
D-502MG; Homo sapiens, D-502MG
  IC50: > 2 µM
GI-1; Homo sapiens, GI-1
  IC50: > 2 µM
OS-RC-2; Homo sapiens, OS-RC-2
  IC50: > 2 µM
MOLT-16; Homo sapiens, MOLT-16
  IC50: > 2 µM
TK-10; Homo sapiens, TK-10
  IC50: > 2 µM
HDLM-2; Homo sapiens, HDLM-2
  IC50: > 2 µM
EW-11; Homo sapiens, EW-11
  IC50: > 2 µM
SK-NEP-1; Homo sapiens, SK-NEP-1
  IC50: > 2 µM

## Cn1cnc2c(F)c(Nc3ccc(Br)cc3Cl)c(C(=O)NOCCO)cc21 [SELUMETINIB]
IA-LM; Homo sapiens, IA-LM
  IC50: > 4 µM
Ramos-2G6-4C10; Homo sapiens, Ramos-2G6-4C10
  IC50: > 4 µM
RS4-11; Homo sapiens, RS4-11
  IC50: > 4 µM
OCUB-M; Homo sapiens, OCUB-M
  IC50: > 4 µM
EW-3; Homo sapiens, EW-3
  IC50: 2.93 µM
DU-4475; Homo sapiens, DU-4475
  IC50: 0.0337 µM
DSH1; Homo sapiens, DSH1
  IC50: > 4 µM
TE-6; Homo sapiens, TE-6
  IC50: > 4 µM
MPP-89; Homo sapiens, MPP-89
  IC50: > 4 µM
NCI-H1395; Homo sapiens, NCI-H1395
  IC50: > 4 µM
IST-SL1; Homo sapiens, IST-SL1
  IC50: > 4 µM
EM-2; Homo sapiens, EM-2
  IC50: 0.512 µM
SNU-C2B; Homo sapiens, SNU-C2B
  IC50: > 4 µM
NCI-H526; Homo sapiens, NCI-H526
  IC50: > 4 µM
C2BBe1; Homo sapiens, C2BBe1
  IC50: 0.273 µM
NCI-H1304; Homo sapiens, NCI-H1304
  IC50: > 4 µM
U-87 MG; Homo sapiens, U-87 MG
  IC50: > 4 µM
TE-11; Homo sapiens, TE-11
  IC50: > 4 µM
RCC10RGB; Homo sapiens, RCC10RGB
  IC50: > 4 µM
NCI-H1355; Homo sapiens, NCI-H1355
  IC50: > 4 µM
CAS-1; Homo sapiens, CAS-1
  IC50: > 4 µM
U-266; Homo sapiens, U-266
  IC50: 0.488 µM
D283 Med; Homo sapiens, D283 Med
  IC50: > 4 µM
SK-MEL-1; Homo sapiens, SK-MEL-1
  IC50: > 4 µM
MSTO-211H; Homo sapiens, MSTO-211H
  IC50: > 4 µM
GB-1; Homo sapiens, GB-1
  IC50: > 4 µM
KS-1; Homo sapiens, KS-1
  IC50: > 4 µM
GI-ME-N; Homo sapiens, GI-ME-N
  IC50: > 4 µM
BE-13; Homo sapiens, BE-13
  IC50: > 4 µM
NB13; Homo sapiens, NB13
  IC50: > 4 µM
NB69; Homo sapiens, NB69
  IC50: 1.05 µM
NCI-H747; Homo sapiens, NCI-H747
  IC50: 0.351 µM
GOTO; Homo sapiens, GOTO
  IC50: > 4 µM
D-247MG
  IC50: > 4 µM
IST-MES1; Homo sapiens, IST-MES1
  IC50: > 4 µM
CGTH-W-1; Homo sapiens, CGTH-W-1
  IC50: > 4 µM
D-502MG; Homo sapiens, D-502MG
  IC50: > 4 µM
GI-1; Homo sapiens, GI-1
  IC50: > 4 µM
OS-RC-2; Homo sapiens, OS-RC-2
  IC50: 2.4 µM
MOLT-16; Homo sapiens, MOLT-16
  IC50: > 4 µM
TK-10; Homo sapiens, TK-10
  IC50: > 4 µM
HDLM-2; Homo sapiens, HDLM-2
  IC50: > 4 µM
EW-11; Homo sapiens, EW-11
  IC50: > 4 µM
SK-NEP-1; Homo sapiens, SK-NEP-1
  IC50: > 4 µM

## BLEOMYCIN
IA-LM; ia-lm
  IC50: 3.4 µM
Ramos-2G6-4C10; ramos-2g6-4c10
  IC50: 9.88 µM
RS4-11; rs4-11
  IC50: 0.00164 µM
NCI-H510A
  IC50: 1.09 µM
OCUB-M; ocub-m
  IC50: 1.81 µM
EW-3; ew-3
  IC50: 18.5 µM
DU-4475; du-4475
  IC50: 1.27 µM
DSH1; dsh1
  IC50: 155 µM
TE-6; te-6
  IC50: 12.4 µM
MPP-89; mpp-89
  IC50: 39.9 µM
NCI-H1395; nci-h1395
  IC50: 384 µM
IST-SL1; ist-sl1
  IC50: 54.6 µM
EM-2; em-2
  IC50: 84.8 µM
SNU-C2B; snu-c2b
  IC50: 2.32 µM
NCI-H526; nci-h526
  IC50: 1.28 µM
C2BBe1; c2bbe1
  IC50: 91.8 µM
NCI-H1304; nci-h1304
  IC50: 4.1 µM
U-87 MG; u-87mg atcc
  IC50: 11.1 µM
TE-11; te-11
  IC50: 6.08 µM
MMAC-SF; mmac-sf
  IC50: 21.3 µM
RCC10RGB; rcc10rgb
  IC50: 70.6 µM
NCI-H1355; nci-h1355
  IC50: 8.2 µM
CAS-1; cas-1
  IC50: 81 µM
U-266; u-266
  IC50: 282 µM
D283 Med; d283 med
  IC50: 3.81 µM
SK-MEL-1; sk-mel-1
  IC50: 260 µM
MSTO-211H; msto-211h
  IC50: 149 µM
GB-1; gb-1
  IC50: 0.39 µM
KS-1; ks-1
  IC50: 0.0108 µM
K5; k5
  IC50: 72.4 µM
EW-24
  IC50: 95.3 µM
GI-ME-N; gi-me-n
  IC50: 0.441 µM
BE-13; be-13
  IC50: 0.399 µM
NB13; nb13
  IC50: 36.7 µM
NB69; nb69
  IC50: 0.923 µM
NCI-H747; nci-h747
  IC50: 1.21 µM
HOP-62
  IC50: 0.00413 µM
GOTO; goto
  IC50: 0.55 µM
IST-MES1; ist-mes1
  IC50: 206 µM
CGTH-W-1; cgth-w-1
  IC50: 4.3 µM
D-502MG; d-502mg
  IC50: 1010 µM
GI-1; gi-1
  IC50: 1.2 µM
OS-RC-2; os-rc-2
  IC50: 3.02 µM
MOLT-16; molt-16
  IC50: 29.5 µM
TK-10; tk-10
  IC50: 0.999 µM
HDLM-2; hdlm-2
  IC50: 14.3 µM
EW-11; ew-11
  IC50: 6.41 µM
SK-NEP-1; sk-nep-1
  IC50: 31.9 µM

— ChEMBL document CHEMBL1201861, “Genomics of Drug Sensitity in Cancer screening data, Wellcome Trust Sanger Institute”
